Data on five compounds can be found in article PMC10376326, “Novel Acylselenourea Derivatives: Dual Molecules with Anticancer and Radical Scavenging Activity” (Antioxidants, 2023).

Assay [1] in a line: DPPH radical scavenging assay. The assay is classed as biochemical. The note with it: for DPPH Inhibitory%: acylselenourea analogs. As to the method: Different methods are available to quantify the antioxidant capacity of natural or novel molecules. Notable among these are the ABTS^•+ and DPPH^• methods, which measure the quenching efficiency in vitro for known concentrations of preformed radicals. In this work, the DPPH^• colorimetric assay was carried out. Measurements were recorded on a BioTeck PowerWave XS spectrophotometer (BioTeck Instruments, Winooski, VT, USA) and data were collected using KCJunior v.1.41. software (BioTeck Instruments, Winooski, VT, USA). Compounds with potent activity were selected to further determine their protective effect against ROS-induced cell death caused by H2O2.
DPPH colorimetric assay was performed to determine the in vitro radical scavenging activity of the acylselenourea derivatives. DPPH assay was performed as described by Svinyarov. For each acylselenourea, a stock solution of 1 mg/mL in dimethyl sulfoxide (DMSO) was made, and these solutions were used to prepare the different concentrations employed in the assay. The compounds were tested at two different concentrations (0.003 and 0.03 mg/mL). Intermediate solutions were prepared in methanol and a volume of 100 µL of each was added to each well of the plate. Then, 100 µL of DPPH^• (previously prepared at a concentration of 0.04 mg/mL in methanol and preserved in the dark) was added to the previous methanolic acylselenourea solutions. The discoloration of the purple radical to the yellow reduced form was followed at 517 nm at different time points (0, 5, 15, 30, 60, 90, and 120 min). Ascorbic acid and trolox were used as positive controls. All measurements were carried out in triplicate. Results are expressed as the percentage of the radicals scavenged, calculated using the following formula: (1) % DPPH radical scavenging=Acontrol - Asample/Acontrol × 100 where Acontrol refers to the absorbance of the negative control and Asample refers to the absorbance of the tested compounds. Results are expressed as percentage of DPPH radical scavenging ± SD.
(In general: DPPH is a stable violet radical that fades when it is reduced.)

The subject of assay [2] is MDA-MB-231 (breast) cancer cell line. Briefly: MTT cell viability assay, MDA-MB-231. The format is cell-based, human. The note with it: Homo sapiens, MDA-MB-231, 48 h; for activity at 10 µM: read-out: Cell growth %, MDA-MB-231, 10 µM, 48 h, MTT; for activity at 50 µM: read-out: Cell growth %, MDA-MB-231, 50 µM, 48 h, MTT. Here is the method: (§1) Cell lines were purchased from the American Type Culture Collection (ATCC). Cell lines MDA-MB-231, HTB-54, DU-145, and BEAS-2B were cultured in RPMI 1640 medium (Gibco, Thermo Fisher Scientific, Gaithersburg, MD, USA) supplemented with 10% fetal bovine serum (FBS; Gibco), 100 units/mL penicillin, and […] streptomycin (Gibco). HT-29 cell line was grown in McCoy’s 5A (Gibco), 10% FBS, 100 units/mL penicillin, and 100 μg/mL streptomycin. Cells were maintained at 37 °C and 5% CO2. The culture medium was changed every three days.
(§2) The cell viability of each compound was measured by MTT colorimetric assay. Each compound was dissolved in DMSO at a concentration of 0.01 M. Each compound was tested at two different concentrations (10 and 50 µM) in MDA-MB-231 (breast), HTB-54 (lung), DU-145 (prostate), and HT-29 (colon) human cancer cell lines. Serial dilutions were prepared with supplemented culture medium. […] IC50 and selectivity indexes (SI) were determined.
(§3) Briefly, 1 × 10^4 tumor cells per well were grown in 96-well plates for 24 h. Then, these cells were incubated for 48 h with either DMSO (control) or a different concentration of each of the tested compounds. The cell viability was determined by adding 20 μL of MTT two hours and a half before the termination point. After this time, the culture medium was removed. The resulting formazan crystals were dissolved in 50 μL of DMSO, and the absorbance was measured at 570 nm. Results are expressed as % cell growth. The data were obtained from at least three independent experiments performed in quadruplicate.

For assay [3], the system named is HT-29 (colon) cancer cell line. In words: MTT cell viability assay, HT-29. The note with it: Homo sapiens, HT-29, 48 h, read-out: Cell growth %; for activity at 10 µM: HT-29, 10 µM; for activity at 50 µM: HT-29, 50 µM. The assay is classed as cell-based. Here is the method:
as §1, §2, §3
In general terms: Tetrazolium assays rely on reduction of a dye to a coloured formazan, in cell work by metabolically active cells.

Assay [4] has as its system HTB-54 (lung) cancer cell line. In words: MTT cell viability assay, HTB-54. The assay is classed as cell-based, human. The note with it: Homo sapiens, HTB-54, 48 h; for activity at 10 µM: read-out: Cell growth %, HTB-54, 10 µM, 48 h, MTT; for activity at 50 µM: read-out: Cell growth %, HTB-54, 50 µM, 48 h, MTT. As to the method: as §1, §2, §3
Assay [5] concerns DU-145 (prostate) cancer cell line. Briefly: MTT cell viability assay, DU-145. The note with it: Homo sapiens, DU-145, 48 h; for activity at 10 µM: read-out: Cell growth %, DU-145, 10 µM, 48 h, MTT; for activity at 50 µM: read-out: Cell growth %, DU-145, 50 µM, 48 h, MTT. The format is cell-based, human. As to the method:
as §1, §2, §3

A further assay concerns DU-145 cells. Briefly: Protective effects against H2O2-induced oxidative stress in DU-145 cells (MTT). The assay is classed as cell-based, human. The note with it: for Cell growth inhibition (%): cells without compounds; for Increase-fold: increase-fold of cell survival. Here is the method: Cells were treated with the selected compounds and then oxidative damage to DU-145 cells was induced using different concentrations of H2O2 (200, 250 and 300 µM), and cell viability was assessed by the MTT method. Briefly, 2.5 × 10^4 DU-145 cells per well were added in 96-well plates. After 24 h of incubation, DMSO, 1.I, 2.I, 5.I, 7.II, 10.II, and ascorbic acid were added to each well at two different concentrations (0.0015 mg/mL and 0.0003 mg/mL) and incubated for 1 h. After that, H2O2 was added at the concentrations of 200, 250, and 300 µM, and the cells were incubated for 12 h to induce cell damage. MTT assay was used to measure cell viability. For each treatment, the mean cell viability was calculated from three independent experiments. The DMSO-treated controls were assigned with a cell viability value of 100% (Vcontrol). The results are expressed as a cell growth inhibition % caused by H2O2 and the increased fold of cell survival, as follows: • Cells without compounds, only treated with H2O2: (2) % Cell growth inhibition=Acontrol - Asample/Acontrol × 100
• Cells treated with compounds and H2O2:
(3) % Cell growth inhibition=Asample (compound) - Asample (compound+H2O2)/Acontrol × 100
(4) Increase-fold of cell survival=% cell growth inhibition (H2O2)/% cell growth inhibition (compound+ H2O2)
The standard error of the mean (SEM) was calculated in at least three independent experiments performed in quadruplicates.

In general, inhibition refers to the share of the control response that was lost under treatment. A higher inhibition goes with a response far below the control.

In the case of `Cc1c(C)c2c(c(C)c1O)CCC(C)(C(=O)O)O2` (stereo not shown) [Trolox, trolox, reference compound], the inhibition in assay [1] (0.003 mg/mL, 0 min) is 28.4 ± 1%; in assay [1] (0.003 mg/mL, 5 min), 29.2 ± 1%; in assay [1] (0.003 mg/mL, 15 min), 29.2 ± 0.9%; in assay [1] (0.003 mg/mL, 30 min), 29.2 ± 0.8%; in assay [1] (0.003 mg/mL, 60 min), 29.2 ± 0.8%; in assay [1] (0.003 mg/mL, 90 min), 29.2%. Also, the inhibition in assay [1] (0.003 mg/mL, 120 min) turned out to be 29.1%; in assay [1] (0.03 mg/mL, 0 min) it was 90.8 ± 2.3%; in assay [1] (0.03 mg/mL, 5 min), 96.3 ± 0.1%; in assay [1] (0.03 mg/mL, 15 min), 96.3 ± 0.2%; in assay [1] (0.03 mg/mL, 30 min), 96.3 ± 0.2%; in assay [1] (0.03 mg/mL, 60 min), 96.2 ± 0.2%. Further, the inhibition in assay [1] (0.03 mg/mL, 90 min) was determined as 96.2 ± 0.2%; in assay [1] (0.03 mg/mL, 120 min), 96.2 ± 0.2%.

As for `C=CCNC(=[Se])NC(=O)c1ccccc1` [Compound 5.II, N-(allylcarbamoselenoyl)benzamide], the inhibition was 1.3 ± 1.7% in assay [1] (0.003 mg/mL, 0 min); 4.5 ± 1.7% in assay [1] (0.003 mg/mL, 5 min); 7.5 ± 1.7% in assay [1] (0.003 mg/mL, 15 min); 10.4 ± 1.8% in assay [1] (0.003 mg/mL, 30 min); 13.9 ± 1.9% in assay [1] (0.003 mg/mL, 60 min); 16.2 ± 2% in assay [1] (0.003 mg/mL, 90 min). Moreover, the inhibition in assay [1] (0.003 mg/mL, 120 min) was found to be 17.8 ± 2.1%; in assay [1] (0.03 mg/mL, 0 min), 13.5 ± 1.3%; in assay [1] (0.03 mg/mL, 5 min), 42.4 ± 1.5%; in assay [1] (0.03 mg/mL, 15 min), 62.7 ± 0.8%; in assay [1] (0.03 mg/mL, 30 min), 80.2 ± 1.1%; in assay [1] (0.03 mg/mL, 60 min), 97.2 ± 0.7%. The compound further came in with an inhibition in assay [1] (0.03 mg/mL, 120 min) of 97.7 ± 1%. In addition, the “time to reach the highest DPPH inhibition” value in assay [1] (0.03 mg/mL) amounted to 60 min. Moreover, the “DPPH Inhibitory%” value in assay [1] (0.03 mg/mL, 90 min) was determined as 97.4 ± 0.8%. Further, the activity at 10 µM in assay [2] is 80.4 ± 8.4%; in assay [3] it was 100 ± 16.6%; in assay [4], 67.6 ± 14.9%; in assay [5] it was 97.5 ± 18.5%. In addition, the activity at 50 µM in assay [2] was 15.6 ± 6%; in assay [3], 23.9 ± 5%; in assay [4], 16.9 ± 4.1%; in assay [5], 10.3 ± 4.9%.

Take `C=CCNC(=[Se])NC(=O)c1cccs1` [Compound 2.II, N-(allylcarbamoselenoyl)thiophene-2-carboxamide]: the inhibition in assay [1] (0.003 mg/mL, 0 min) was found to be 0%; in assay [1] (0.003 mg/mL, 5 min), 6.4 ± 1.1%; in assay [1] (0.003 mg/mL, 15 min) it was 10.4 ± 1.2%; in assay [1] (0.003 mg/mL, 30 min) it was 13 ± 1.2%; in assay [1] (0.003 mg/mL, 60 min), 15.2 ± 1.2%; in assay [1] (0.003 mg/mL, 90 min), 16 ± 1.2%. Also, the inhibition in assay [1] (0.003 mg/mL, 120 min) amounted to 16.3 ± 1.2%; in assay [1] (0.03 mg/mL, 0 min), 24.4 ± 3%; in assay [1] (0.03 mg/mL, 5 min), 60.7 ± 2.5%; in assay [1] (0.03 mg/mL, 15 min) it was 75.8 ± 3.5%; in assay [1] (0.03 mg/mL, 30 min) it was 87.6 ± 4%; in assay [1] (0.03 mg/mL, 60 min), 96.7 ± 0.7%. The “time to reach the highest DPPH inhibition” value in assay [1] (0.03 mg/mL) was found to be 60 min. Besides, in assay [1] (0.03 mg/mL, 90 min), the “DPPH Inhibitory%” value is 97.3 ± 0.8%. The activity at 10 µM in assay [2] worked out at 79.9 ± 9.6%; in assay [3], 107 ± 16.2%; in assay [4] it was 35.9 ± 12.1%; in assay [5], 63.4 ± 5.6%. Also, the activity at 50 µM stood at 11.1 ± 5.9% in assay [2], 26.2 ± 5.1% in assay [3], 8.52 ± 4.8% in assay [4] and 7.33 ± 4.6% in assay [5].

For the compound `OO` [Compound H2O2, H2O2, reference compound], the “Cell growth inhibition (%)” value in the assay with DU-145 cells (only treated with 200 µM H2O2, DU-145, 12 h) turned out to be 36.9 ± 6.9%; with DU-145 cells (only treated with 250 µM H2O2, DU-145, 12 h), 53.4 ± 6.1%; in the assay with DU-145 cells (only treated with 300 µM H2O2, DU-145, 12 h) it was 66.8 ± 6.3%.

Consider `O=C1O[C@H]([C@@H](O)CO)C(O)=C1O` [Asc. Acid, ascorbic acid, reference compound], for which the inhibition in assay [1] (0.003 mg/mL, 0 min) amounted to 33.5 ± 0.5%; in assay [1] (0.003 mg/mL, 5 min) it was 33.6 ± 0.4%; in assay [1] (0.003 mg/mL, 15 min), 34.5 ± 1.6%; in assay [1] (0.003 mg/mL, 30 min), 34.1 ± 1.1%; in assay [1] (0.003 mg/mL, 60 min), 34 ± 0.9%; in assay [1] (0.003 mg/mL, 90 min) it was 34 ± 0.8%. In addition, the inhibition in assay [1] (0.003 mg/mL, 120 min) came to 34 ± 0.7%; in assay [1] (0.03 mg/mL, 0 min) it was 96.4 ± 0.2%; in assay [1] (0.03 mg/mL, 5 min) it was 96.4 ± 0.1%; in assay [1] (0.03 mg/mL, 15 min), 96.9 ± 0.5%; in assay [1] (0.03 mg/mL, 30 min) it was 96.9 ± 0.5%; in assay [1] (0.03 mg/mL, 60 min) it was 96.6 ± 0.1%. For the same compound, the inhibition in assay [1] (0.03 mg/mL, 90 min) came out at 96.6 ± 0.1%; in assay [1] (0.03 mg/mL, 120 min), 96.6 ± 0.1%. Also, the Increase-fold with DU-145 cells (compound 0.0003 mg/mL, 200 µM H2O2, DU-145) was 4.2 ± 0.4; with DU-145 cells (compound 0.0003 mg/mL, 250 µM H2O2, DU-145) it was 3.1 ± 0.7; with DU-145 cells (compound 0.0003 mg/mL, 300 µM H2O2, DU-145), 2.2 ± 0.1; in the assay on DU-145 cells (compound 0.0015 mg/mL, 200 µM H2O2, DU-145), 3.6 ± 0.3; with DU-145 cells (compound 0.0015 mg/mL, 250 µM H2O2, DU-145), 2.9 ± 0.7; in the assay with DU-145 cells (compound 0.0015 mg/mL, 300 µM H2O2, DU-145), 1.5 ± 0.2.
